Experiments:
[1] = system: RIPK1 phosphorylation and MLKL oligomerization in FADD deficient Jurkat cells; test: Western blot of key proteins in TNFα-induced FADD deficient Jurkat cell programmed necrosis pathway; type: cell-based, human; conditions: TNFα-stimulated FADD deficient Jurkat cells, FIG. 2
From the text: In order to verify whether the compounds of the present invention can inhibit programmed cell death by inhibiting the activity of RIPK1, and to detect the activation of downstream proteins of programmed necrosis pathway, TNFα was used to stimulate FADD deficient Jurkat to produce programmed necrosis, and the compounds of the present invention were used to treat the cells at the same time. Cells were harvested after a period of time to detect phosphorylation of RIPK1 and oligomerization of MLKL using western blot.
FADD deficient Jurkat cells (human peripheral blood leukemia T cell line) were cultured in vitro. […] The BCA protein quantification kit was used to detect the protein content of each group, and PIPA lysis buffer was used to adjust the protein amount to make the final volume of 100 μL. […]
25 μL of 5* protein loading buffer was added to 100 μL of cell lysate, and the mixture was heated at 95° C. for 10 min After the samples were cooled, electrophoresis was carried out using SDS-PAGE (9%) gel at 60V, and then switched to 120V after 30 min until the leading band was electrophoresed to the bottom of the gel. […] The resulting sample was incubated with ECL luminescent solution and detected the luminescent signal.

RIPK1(1-330) protein = target: T1, RIPK1(1-330) protein (Homo sapiens, UniProt Q13546); test: ADP-Glo kinase activity assay at different ATP concentrations; type: biochemical; parameters: RIPK1(1-330) protein with a final concentration of 2 μL and ATP; made in house; conditions: FIG. 4
T1 sequence (Q13546 1-330): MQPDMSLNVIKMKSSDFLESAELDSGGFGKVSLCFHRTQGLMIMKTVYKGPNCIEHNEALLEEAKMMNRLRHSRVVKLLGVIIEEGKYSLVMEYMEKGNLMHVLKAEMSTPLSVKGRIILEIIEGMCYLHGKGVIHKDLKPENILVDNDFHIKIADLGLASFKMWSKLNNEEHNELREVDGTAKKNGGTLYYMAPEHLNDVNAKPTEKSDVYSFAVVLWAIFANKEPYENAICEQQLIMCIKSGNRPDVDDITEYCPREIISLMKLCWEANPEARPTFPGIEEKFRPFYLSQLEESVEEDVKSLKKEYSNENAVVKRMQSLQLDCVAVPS
Method: The adopted biological test protocol was: The effect of compound QY-1-98 on the kinase activity of RIPK1(1-330) protein was tested. The purified RIPK1(1-330) protein in vitro retained the complete kinase activity domain and maintained good kinase activity. Through the IC50 of the compounds of the present invention inhibiting RIPK1 kinase activity in the environment with different concentrations of ATP, the binding mode of the compounds to RIPK1 is obtained. Nec-1s, a known ATP-noncompetitive inhibitor of RIPK1, was used as a control.
RIPK1(1-330) protein with a final concentration of […] and ATP (1× kinase buffer) with a corresponding concentration were added to the 384-well plate, with a […]. At least 3 duplicate wells were set in each group. The reaction was carried out at 37° C. for 2H. 5 μL of ADP-Glo reagent was added, which is used to stop the kinase reaction and remove residual ATP from the reaction system. The reaction solution was placed at room temperature for 40 min 10 μL of kinase detection reagent was added, which is used to convert ADP to ATP and luciferase and luciferin were introduced to detect ATP in the system. The reaction was carried out at room temperature for 1H. Luminescence was detected using the 7500 Fast Real-Time PCR System. The IC50 of the compounds inhibiting the kinase reaction was calculated using Prism Graphpad statistical software.

Q: For Cc1noc([C@@H]2CCCN2C(=O)C(C)(C)Oc2ccc(Cl)cc2)n1 [QY-1-98], which “oligomerization of MLKL” value [1] is on record?
A: can inhibit

Q: What about the “phosphorylation of RIPK1” value [1] of the same compound?
A: can inhibit the phosphorylation of RIPK1

Q: And the “activity of RIPK1 (1-330) protein kinase in vitro” value (RIPK1(1-330) protein; ADP-Glo)?
A: can inhibit the activity of RIPK1 (1-330) protein kinase in vitro

Q: What about the “change of IC50 with the increase of ATP concentration” value (RIPK1(1-330) protein; different ATP concentrations) of the same compound?
A: does not change significantly
